# From patent publication US20260137701A1, “CHOLESTENOIC ACID (CA) AND A SULFATED DERIVATIVE THEREOF, 3[BETA]-SULFATE-5-CHOLESTENOIC ACID (CA3S), AS ENDOGENOUS EPIGENETIC REGULATORS” (priority 2022, published 2026)
# Key:
# recombinant DNMT3a = recombinant DNMT3a (Homo sapiens, UniProt Q9Y6K1); assay: DNMT3a enzyme kinetic (activity) assay, 3H-SAM filter; type: biochemical; settings: read-out: IC50, inhibits DNMT3a activity
# Experimental: The enzyme kinetic studies were carried out by Reaction Biology Company. For the DNMT1 activity assay, the substrate solution, 0.001 mg/ml Poly(dI-dC): Poly(dI-dC) in 50 mM Tris-HCl, pH 7.5, 50 mM NaCl, 5 mM EDTA, 5 mM DTT, 1 mM PMSF, 5% glycerol, 0.01% Brij™35, 1% DMSO was used. For the DNMT3a/3b activity assay, 0.0075 mg/ml Lambda DNA in 50 mM Tris-HCl, pH 7.5, 50 mM NaCl, 5 mM EDTA, 5 mM DTT, 1 mM PMSF, 5% glycerol, 1% DMSO, was used. The indicated DNMT1, DNMT3a and DNMT3b were added to the appropriate substrate solution and gently mixed. Amounts of CA ranging from 5.08E-09 to 0.0001 M in DMSO were added to the reaction mixture by using Acoustic Technology (Echo® 550, LabCyte Inc. Sunnyvale, CA). The mixtures were first incubated for 15 min, then ^3H-SAM was added to the reaction mixture to initiate the reaction, and the mixture was incubated for 60 min at 30° C. Following incubation, the reaction mixture was finally transferred to filter-paper for detection of radioactivity counts.
# NAFLD mouse model = assay: western diet-induced NAFLD mice model, health and serum enzymes; type: in vivo; settings: 10 mg/kg CA injection, two weeks
# Description: The animal studies were approved by the Institutional Animal Care and Use Committee of McGuire Veterans Affairs Medical Center and conducted in accordance with the Declaration of Helsinki, the Guide for the Care and Use of Laboratory Animals, and all applicable regulations. In this study, a western diet-induced nonalcoholic fatty liver disease (NAFLD) mice model was used. To create the model, eight-week-old C57BL/6J female mice were purchased from the Jackson Laboratory and fed a western diet (TD.88137, Envigo) along with high glucose/fructose water (WDSW) containing 23.1 g/L fructose and 18.9 g/L glucose for 12 weeks. After establishing the model, the mice were separated into three groups based on their weight. For the control mice in each group, they received intravenous injection (IV) with vehicle (DMSO). In contrast, the treatment group mice were intravenously injected with 10 mg/kg of CA (dissolved in DMSO) with a total volume of less than 100 μl. During the treatment period, injections were administered every two days. All mice were housed under identical conditions in an aseptic facility with a 12-hour light/12-hour dark cycle and provided with free access to water and food (WDSW). Before scarification, the mice fasted overnight. Blood samples were collected, and the serum enzymatic activities of alkaline phosphatase (ALK), alanine aminotransferase (ALT), and aspartate aminotransferase (AST) were measured in the clinical laboratory at McGuire Veterans Affairs Medical Center.
# [1] = tested on: normal primary human hepatocytes (PHH)
# Chain of recombinant DNMT3a (Q9Y6K1 whole entry, looked up): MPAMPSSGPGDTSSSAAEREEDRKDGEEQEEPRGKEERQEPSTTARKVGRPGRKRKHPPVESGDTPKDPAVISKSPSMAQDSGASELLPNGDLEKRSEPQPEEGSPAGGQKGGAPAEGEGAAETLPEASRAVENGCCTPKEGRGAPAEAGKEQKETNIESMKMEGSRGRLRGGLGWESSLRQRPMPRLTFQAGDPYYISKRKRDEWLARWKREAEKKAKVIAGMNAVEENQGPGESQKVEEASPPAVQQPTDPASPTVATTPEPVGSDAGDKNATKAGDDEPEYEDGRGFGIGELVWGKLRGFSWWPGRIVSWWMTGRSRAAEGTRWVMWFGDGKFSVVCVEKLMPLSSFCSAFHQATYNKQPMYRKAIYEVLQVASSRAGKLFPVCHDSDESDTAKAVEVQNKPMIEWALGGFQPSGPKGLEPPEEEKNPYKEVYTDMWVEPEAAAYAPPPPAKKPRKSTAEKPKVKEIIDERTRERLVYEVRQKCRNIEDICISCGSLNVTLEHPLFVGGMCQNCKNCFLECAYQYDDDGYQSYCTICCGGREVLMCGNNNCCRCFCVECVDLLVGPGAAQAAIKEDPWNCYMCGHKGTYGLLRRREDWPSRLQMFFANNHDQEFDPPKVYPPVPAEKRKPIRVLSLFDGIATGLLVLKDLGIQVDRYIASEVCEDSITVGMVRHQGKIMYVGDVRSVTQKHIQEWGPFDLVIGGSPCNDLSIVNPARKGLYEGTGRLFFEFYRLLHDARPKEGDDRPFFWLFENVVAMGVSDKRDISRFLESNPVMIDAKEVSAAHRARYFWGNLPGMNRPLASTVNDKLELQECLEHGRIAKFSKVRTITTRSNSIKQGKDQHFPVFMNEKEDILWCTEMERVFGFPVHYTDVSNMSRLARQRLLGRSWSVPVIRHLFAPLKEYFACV
structure (smiles),measurement,setting,value
"CC(CCC[C@@H](C)[C@H]1CC[C@H]2[C@@H]3CC=C4C[C@@H](O)CC[C@]4(C)[C@H]3CC[C@]12C)C(=O)O (stereo partly drawn) [CA, 3β-hydroxy-5-cholestenoic acid]",IC50,recombinant DNMT3a,8.41 µM
same,"in vivo toxicity, health of mice",NAFLD mouse model,remained in good health
same,serum activity of ALK,NAFLD mouse model,significant decrease
same,serum activity of ALT,NAFLD mouse model,significant decrease
same,death of normal primary human hepatocytes,[1],not the death
